{"source": "patent US12527801B2", "about": "“Cell activator of animal cell” (Vitamin C60 BioResearch Corporation, priority 2019, dated 2026)", "tested_on": "Normal human epidermal keratinocytes", "assay": "Action of activating epidermal cells (MTT reduction)", "format": "cell-based", "details": "for Index (%) Mean ± S.D.: 48 h, untreated cells = 100", "experimental": "Normal human epidermal keratinocytes were seeded on 96-well plates at the density of 5.0×10^3 cells/well using a HuMedia KG2 medium (KG2). 24 hours after seeding, the above-mentioned medium was replaced with a HuMedia KB2 medium (KB2) comprising the test sample. AOH and AHX (2-azahypoxanthine) were used as test samples, KG2 as a positive control (P. C.) for the cell activating action was treated instead of the test sample, and cells which were not treated with the samples were used as a negative control. After culturing for 48 hours, the above-mentioned medium was replaced with KB2 comprising 0.2 mg/mL of MTT to perform culturing for 1 hour. After removing the medium, the absorbance at 550 nm and 650 nm of the cell lysate in which 2-propanol was added to lyse the cells was measured. The amount of MTT reduced to blue formazan was obtained by subtracting the absorbance at 650 nm, which was derived from the cell turbidity, from the absorbance at 550 nm. The action of activating epidermal keratinocytes was shown as Index (%), which is a percentage of the absorbance of the cells, which was treated with the test samples, to the absorbance of the cells, which was not treated with the samples (negative control), with the amount of MTT reduced as an index."}
{"molecule": "O=c1[nH]nnc2[nH]cnc12", "note": "[AHX, 7H-imidazo[4,5-d][1,2,3]triazin-4(3H)-one, reference compound]", "values": [{"measurement": "Index (%) Mean ± S.D.", "setting": "3.9 μg/mL", "result": "100.6 ± 3", "unit": "%"}, {"measurement": "Index (%) Mean ± S.D.", "setting": "7.8 μg/mL", "result": "96.1 ± 2.7", "unit": "%"}, {"measurement": "Index (%) Mean ± S.D.", "setting": "15.6 μg/mL", "result": "94 ± 5.9", "unit": "%"}, {"measurement": "Index (%) Mean ± S.D.", "setting": "31.3 μg/mL", "result": "87.1 ± 4.5", "unit": "%"}, {"measurement": "Index (%) Mean ± S.D.", "setting": "62.5 μg/mL", "result": "80.2 ± 1.8", "unit": "%"}, {"measurement": "Index (%) Mean ± S.D.", "setting": "125 μg/mL", "result": "77.4 ± 2^ %"}, {"measurement": "Index (%) Mean ± S.D.", "setting": "250 μg/mL", "result": "78.4 ± 1.8", "unit": "%"}, {"measurement": "Index (%) Mean ± S.D.", "setting": "500 μg/mL", "result": "74.2 ± 1.9", "unit": "%"}, {"measurement": "change in Index", "setting": "concentration of 31.3 μg/mL or more", "result": "significantly reduced"}, {"measurement": "proliferative effect / cell activating action", "setting": "epidermal keratinocytes", "result": "did not have a proliferative effect"}]}
